Experimental data published in patent US11130741B2 (Bioimics AB, priority 2016, dated 2021).
In brackets after ≈: the same amount, converted by molar mass. Read-outs that look alike come from different tables or passages of the source.

Legend:
[1] = system: Staphylococcus aureus (ATCC25923); assay: MIC, broth microdilution (CLSI), Staphylococcus aureus ATCC25923; conditions: ATCC25923, read-out: S. aureus ("Clinical") MIC
[2] = system: Escherichia coli (ATCC25922); assay: MIC, broth microdilution (CLSI), Escherichia coli ATCC25922
[3] = system: E. coli RNase P RNA, M1 RNA; assay: Initial inhibition of RNase P activity (normalised cleavage of pATSerUG at maximum compound concentration); assay type: biochemical; conditions: normalised cleavage (cleavage with compound / without compound)
E. coli JW5503 = assay: MIC, E. coli JW5503; assay type: cell-based; conditions: Escherichia coli, JW5503, read-out: MIC E. coli JW5503
S. pneumoniae ATCC 49619 = assay: MIC, S. pneumoniae ATCC 49619; assay type: cell-based; conditions: Streptococcus pneumoniae, ATCC49619
[4] = system: Enterococcus faecalis (ATCC29212); assay: MIC, broth microdilution (CLSI), Enterococcus faecalis ATCC29212; assay type: cell-based; conditions: read-out: MIC E. faecalis ATCC 29212
E. faecium ATCC 700221 = assay: MIC, E. faecium ATCC 700221; assay type: cell-based; conditions: Enterococcus faecium, ATCC700221; read-out: MIC E. faecium ATCC 700221
[5] = system: Staphylococcus aureus subsp. aureus (ATCC29213); assay: MIC, broth microdilution (CLSI), Staphylococcus aureus subsp. aureus ATCC29213; assay type: cell-based
S. aureus ATCC 29213 = assay: MIC, S. aureus ATCC 29213 + 50% HS; assay type: cell-based; conditions: Staphylococcus aureus, ATCC29213
[6] = system: E. coli RNase P RNA, M1 RNA; assay: Inhibition of bacterial RNase P activity, IC50 determination (cleavage of pATSerUG by M1 RNA); assay type: biochemical; conditions: NI = No inhibition
[7] = system: Pseudomonas aeruginosa (ATCC27853); assay: microbe, parasite or virus in culture; assay type: cell-based; conditions: read-out: MIC P. aeruginosa ATCC 27853
[8] = system: S. aureus USA300 MRSA BAA 1717; assay: MIC, S. aureus USA300 MRSA BAA 1717; assay type: cell-based; conditions: Staphylococcus aureus
K. pneumoniae ATCC 43816 = assay: MIC, K. pneumoniae ATCC 43816; assay type: cell-based; conditions: Klebsiella pneumoniae, ATCC43816
A. baumannii ATCC 17978 = assay: MIC, A. baumannii ATCC 17978; assay type: cell-based; conditions: Acinetobacter baumannii, ATCC17978
H. pylori ATCC 43504 = assay: MIC, H. pylori ATCC 43504; assay type: cell-based; conditions: Helicobacter pylori, ATCC43504
[9] = system: P. aeruginosa NTUH-974 (MDR); assay: MIC, P. aeruginosa NTUH-974 (MDR); assay type: cell-based
M. phlei ATCC 11758 = assay: MIC, M. phlei ATCC 11758; assay type: cell-based; conditions: Mycolicibacterium phlei, ATCC11758
H. influenzae ATCC 49247 = assay: MIC, H. influenzae ATCC 49247; assay type: cell-based; conditions: Haemophilus influenzae, ATCC49247
[10] = system: S. aureus MRSA ATCC 33591; assay: MIC, S. aureus MRSA ATCC 33591; assay type: cell-based; conditions: Staphylococcus aureus; read-out: MIC S. aureus MRSA ATCC 33591
N. gonorrhoeae 612501 = assay: MIC, N. gonorrhoeae 612501; assay type: cell-based; conditions: Neisseria gonorrhoeae
M. fortuitum ATCC 110 = assay: MIC, M. fortuitum ATCC 110; assay type: cell-based; conditions: Mycolicibacterium fortuitum, ATCC110
[11] = ATCC25922, read-out: E. coli MIC, Table 15, NI = No inhibition
[12] = ATCC29213, Table 15, read-out: S. aureus ("wound") (MIC)
[13] = ATCC29213, Table 16, read-out: MIC S. aureus ATCC 29213
[14] = ATCC25922, read-out: MIC E. coli ATCC 25922, Table 16
[15] = Pseudomonas aeruginosa; read-out: MIC P. aeruginosa NTUH-974 (MDR)

Nc1cc(C(F)(F)F)cc2c1Nc1ccccc1S2 [compound 2, 3-(trifluoromethyl)-10H-phenothiazin-1-amine]
MIC [1]: 4 µg/mL (≈ 14.2 µM) | MIC [2, 11]: > 100 µg/mL | Normalised RNase P cleavage (fraction of control) ([3]; at 8 μM): 0.42 | Normalised RNase P cleavage (fraction of control) ([3]; at 10 μM): 0.84

Cl.Cl.NCCN1CCC(Nc2cc(C(F)(F)F)cc3c2Nc2ccc(N4CCCC4)cc2S3)CC1 [compound 284, N-(1-(2-aminoethyl)piperidin-4-yl)-7-(pyrrolidin-1-yl)-3-(trifluoromethyl)-10H-phenothiazin-1-amine hydrochloride]
MIC (E. coli JW5503): 4 µg/mL | MIC (S. pneumoniae ATCC 49619): 8 µg/mL | MIC [4]: 2 µg/mL | MIC (E. faecium ATCC 700221): 2 µg/mL | MIC [5, 12]: 2 µg/mL | MIC [5, 13]: 2 µg/mL | MIC (S. aureus ATCC 29213): 32 µg/mL | IC50 [6]: 0.89 µM | MIC [7]: 32 µg/mL | MIC [8]: 2 µg/mL | MIC (K. pneumoniae ATCC 43816): 4 µg/mL | MIC (A. baumannii ATCC 17978): 8 µg/mL | MIC (H. pylori ATCC 43504): 32 µg/mL | MIC [2, 11]: 8 µg/mL | MIC [2, 14]: 4 µg/mL | MIC [9, 15]: 32 µg/mL | MIC (M. phlei ATCC 11758): 4 µg/mL | MIC (H. influenzae ATCC 49247): 8 µg/mL | MIC [10]: 2 µg/mL | MIC (N. gonorrhoeae 612501): 2 µg/mL | MIC (M. fortuitum ATCC 110): 8 µg/mL

CC1CCN(c2ccc3c(c2)Sc2cc(C(F)(F)F)cc(NC4CCN(CCN)CC4)c2N3)CC1.Cl.Cl [compound 307, N-(1-(2-aminoethyl)piperidin-4-yl)-7-(4-methyl-piperidin-1-yl)-3-(trifluoromethyl)-10H-phenothiazin-1-amine hydrochloride]
MIC (E. coli JW5503): 2 µg/mL | MIC (S. pneumoniae ATCC 49619): 8 µg/mL | MIC [4]: 2 µg/mL | MIC (E. faecium ATCC 700221): 2 µg/mL | MIC [5, 12]: 2 µg/mL | MIC [5, 13]: 2 µg/mL | MIC (S. aureus ATCC 29213): 32 µg/mL | IC50 [6]: 16 µM | MIC [7]: 16 µg/mL | MIC [8]: 2 µg/mL | MIC (K. pneumoniae ATCC 43816): 4 µg/mL | MIC (A. baumannii ATCC 17978): 8 µg/mL | MIC (H. pylori ATCC 43504): 16 µg/mL | MIC [2, 11]: 4 µg/mL | MIC [2, 14]: 4 µg/mL | MIC [9, 15]: 16 µg/mL | MIC (M. phlei ATCC 11758): 8 µg/mL | MIC (H. influenzae ATCC 49247): 2 µg/mL | MIC [10]: 2 µg/mL | MIC (N. gonorrhoeae 612501): 1 µg/mL | MIC (M. fortuitum ATCC 110): 4 µg/mL

CC1CC(C)CN(c2ccc3c(c2)Sc2cc(C(F)(F)F)cc(NC4CCN(CCN)CC4)c2N3)C1.Cl.Cl.Cl (stereo not shown) [compound 274, N-(1-(2-aminoethyl)piperidin-4-yl)-7-(3,5-dimethyl-piperidin-1-yl)-3-(trifluoromethyl)-10H-phenothiazin-1-amine hydrochloride]
MIC (E. coli JW5503): 8 µg/mL | MIC (S. pneumoniae ATCC 49619): 4 µg/mL | MIC [4]: 2 µg/mL | MIC (E. faecium ATCC 700221): 1 µg/mL | MIC [5, 12]: 1 µg/mL | MIC [5, 13]: 1 µg/mL | MIC (S. aureus ATCC 29213): 16 µg/mL | IC50 [6]: 24 µM | MIC [7]: 16 µg/mL | MIC [8]: 1 µg/mL | MIC (K. pneumoniae ATCC 43816): 4 µg/mL | MIC (A. baumannii ATCC 17978): 4 µg/mL | MIC (H. pylori ATCC 43504): 16 µg/mL | MIC [2, 11]: 8 µg/mL | MIC [2, 14]: 4 µg/mL | MIC [9, 15]: 16 µg/mL | MIC (M. phlei ATCC 11758): 4 µg/mL | MIC (H. influenzae ATCC 49247): 1 µg/mL | MIC [10]: 1 µg/mL | MIC (N. gonorrhoeae 612501): 1 µg/mL | MIC (M. fortuitum ATCC 110): 4 µg/mL

O=C(/C=C/c1ccc(F)cc1)Nc1cc(C(F)(F)F)cc2c1Nc1ccccc1S2 [compound 92, E-3-(4-fluorophenyl)-N-(3-(trifluoromethyl)-10H-phenothiazin-1-yl)acrylamide]
MIC (E. coli JW5503): > 128 µg/mL | MIC (S. pneumoniae ATCC 49619): 8 µg/mL (≈ 18.6 µM) | MIC [4]: 2 µg/mL (≈ 4.65 µM) | MIC [1]: 1 µg/mL (≈ 2.32 µM) | MIC (E. faecium ATCC 700221): 0.5 µg/mL (≈ 1.16 µM) | MIC [5, 12]: 1 µg/mL (≈ 2.32 µM) | MIC [5, 13]: 0.5 µg/mL (≈ 1.16 µM) | MIC (S. aureus ATCC 29213): 128 µg/mL | IC50 [6]: > 100 µM | MIC [7]: > 128 µg/mL | MIC (K. pneumoniae ATCC 43816): > 128 µg/mL | MIC (A. baumannii ATCC 17978): > 128 µg/mL | MIC [2, 11]: > 100 µg/mL | MIC ([2]; ATCC25922, read-out: MIC E. coli ATCC 25922): > 128 µg/mL | MIC ([9]; Pseudomonas aeruginosa, read-out: MIC P. aeruginosa NTUH-974 (MDR)): > 128 µg/mL | MIC (H. influenzae ATCC 49247): > 128 µg/mL | MIC [10]: 2 µg/mL (≈ 4.65 µM) | MIC (N. gonorrhoeae 612501): 0.25 µg/mL (≈ 0.581 µM)
